Measured values published in PubChem BioAssay (NCI).
Where “and” joins values, the source holds several entries; their conditions need not be identical. Equal values may be shown once.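 Assay format: 96-well plates, 48-hour exposure. GI50 is the concentration that inhibits growth by half. TGI: total growth inhibition.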

Experiments:
Assay in all cases: growth of human tumour cells (NCI), 48 h
CAKI-1 renal = system: CAKI-1 renal
CCRF-CEM leukemia = system: CCRF-CEM leukemia
EKVX NSCLC = system: EKVX NSCLC
HOP-92 NSCLC = system: HOP-92 NSCLC
MCF7 breast = system: MCF7 breast
MDA-MB-231 breast = system: MDA-MB-231 breast
MOLT-4 leukemia = system: MOLT-4 leukemia
OVCAR-3 ovarian = system: OVCAR-3 ovarian
SK-MEL-2 melanoma = system: SK-MEL-2 melanoma
T-47D breast = system: T-47D breast

Row | SMILES | GI50 (CAKI-1 renal) | TGI (CAKI-1 renal) | GI50 (CCRF-CEM leukemia) | TGI (CCRF-CEM leukemia) | GI50 (EKVX NSCLC) | TGI (EKVX NSCLC) | GI50 (HOP-92 NSCLC) | TGI (HOP-92 NSCLC) | GI50 (MCF7 breast) | TGI (MCF7 breast) | GI50 (MDA-MB-231 breast) | TGI (MDA-MB-231 breast) | GI50 (MOLT-4 leukemia) | TGI (MOLT-4 leukemia) | GI50 (OVCAR-3 ovarian) | TGI (OVCAR-3 ovarian) | GI50 (SK-MEL-2 melanoma) | TGI (SK-MEL-2 melanoma) | GI50 (T-47D breast) | TGI (T-47D breast)
1 | CCOC(=O)/C=C1\SC(=Nc2ccc(C#N)cc2)N(CCN2C(=O)/C(=C/C(=O)OCC)SC2=Nc2ccc(C#N)cc2)C1=O | 3.57 µM | 14.9 µM | 0.613 µM | 16.9 µM | 5.2 µM | 28.7 µM | 13.7 µM | 36.5 µM | 0.353 µM | 17.7 µM | 2.09 µM | 7.85 µM | 1.15 µM | > 100 µM | 0.795 µM | 3.27 µM | 12.1 µM | 28.8 µM | 2.37 µM | 41.2 µM
2 | O=C(Oc1ccc([N+](=O)[O-])cc1)N1CCN(Cc2cccc(Oc3ccccc3)c2)CC1 | > 73.6 µM | > 100 µM | 40.5 µM | > 100 µM | 48.6 µM | > 100 µM | 18.2 µM | > 100 µM | 37.1 µM | > 100 µM | > 100 µM | > 100 µM | 38.9 µM | > 100 µM | > 96.2 µM | > 100 µM | > 67.1 µM | > 100 µM | 17.7 µM | > 100 µM
3 | CC(C)(C)OC(=O)NCCCCCCCCn1c2c(c3ccccc3c1=O)C(=O)c1ccccc1-2 | 11.8 µM | > 36.5 µM | – | > 11.4 µM | 43.5 µM | > 50 µM | 9.05 µM | 21 µM | > 50 µM | > 50 µM | 13.5 µM | > 47.5 µM | > 50 µM | > 50 µM | – | > 39.4 µM | 5.61 µM | 19.9 µM | > 48 µM | > 50 µM
4 | COc1cc(-c2oc3c(OC)c(OC)cc(O)c3c(=O)c2OC)ccc1O | – | > 50 µM | – | > 100 µM and 21.4 µM | – | > 50 µM | 2.74 µM and 5.85 µM | 9.13 µM and 30.1 µM | – | > 50 µM | – | > 50 µM | – | 31.5 µM | – | > 50 µM | 2.52 µM and 6.91 µM | > 100 µM and 32.7 µM | – | 34.4 µM
5 | COc1ncc(-c2nc3c(n2C(C)C)[C@H](c2ccc(Cl)cc2)N(c2cc(Cl)cn(C)c2=O)C3=O)c(OC)n1 | 26.3 µM | > 100 µM | 30.9 µM | > 100 µM | 36.6 µM | > 100 µM | 3.28 µM | 52.6 µM | 17.3 µM | > 100 µM | 29.6 µM | > 100 µM | 12.4 µM | 39.6 µM | 46 µM | > 100 µM | 46.3 µM | > 100 µM | 29.5 µM | > 100 µM
6 | C#CCN1CCN(C(=S)N/N=C(\C)c2ccccn2)CC1 | 0.785 µM | 12.8 µM | – | 2.14 µM | 0.471 µM | 3.52 µM and 6.91 µM | 3.43 µM | 5.13 µM and 5.16 µM | < 0.001 µM | 2.73 µM and 2.9 µM | – | 3.54 µM and 5.04 µM | 0.136 µM | 2.28 µM | 0.00448 µM | 1.4 µM and 1.2 µM | 2.4 µM | 5.41 µM and 4.64 µM | – | 3.6 µM and 4.06 µM
7 | COc1cc(NN=C(c2ccc(O)cc2)c2ccc(O)cc2)c([N+](=O)[O-])cc1[N+](=O)[O-] | 13.8 µM | 26.7 µM | 1.37 µM | > 100 µM | 14.4 µM | 28.3 µM | 12.1 µM | 31.6 µM | 5.71 µM | 21.9 µM | 11.4 µM | 25.5 µM | 6.52 µM | > 100 µM | 1.21 µM | 14.8 µM | 14.2 µM | 30.5 µM | 1.62 µM | 19.2 µM
8 | COc1cc(/C=C/C(=O)c2cc(F)c(Cl)cc2Cl)cc(OC)c1OC | 27.6 µM | > 100 µM | 23.8 µM | 76.4 µM | > 100 µM | > 100 µM | 25.9 µM | > 100 µM | 32.3 µM | > 100 µM | 15.7 µM | > 100 µM | 12.9 µM | 52.9 µM | 14.5 µM | 40 µM | 15.8 µM | 58.7 µM | 41.2 µM | > 100 µM
9 | COc1cc2c3c(n(CCCN)c(=O)c2cc1OC)-c1ccc(F)cc1C3=O | 1.69 µM | 15.6 µM | 0.17 µM | 0.987 µM | 11.6 µM | 25.1 µM | 8.91 µM | 42.9 µM | 0.618 µM | 7.25 µM | 12.8 µM | 26.3 µM | 0.385 µM | 4.13 µM | 4.46 µM | 17.4 µM | 17 µM | 34.7 µM | 2.46 µM | 15.5 µM
10 | Nc1nc2ccc([C@@H]3Nc4ccc5[nH]ncc5c4[C@H]4[C@H]5CCC(C5)[C@H]43)cc2s1 | 0.791 µM | 3.34 µM | 0.507 µM | 19 µM | 1.47 µM | 4.92 µM | 1.67 µM | 11.8 µM | 0.412 µM | 1.73 µM | 1.29 µM | 11.6 µM | 0.632 µM | 3.05 µM | 0.366 µM | 1.25 µM | 1.82 µM | 6.79 µM | 0.79 µM | 6.16 µM
11 | CC[N+](CC)=c1ccc2nc3c(cc(NCc4ccccc4)c4ccccc43)oc-2c1 | 0.231 µM | 1.54 µM | 0.476 µM | 7.15 µM | 0.159 µM | 0.944 µM | 0.217 µM | 1.33 µM | 0.165 µM | 0.474 µM | 0.214 µM | 1.72 µM | 0.346 µM | 3.17 µM | 0.0951 µM | 0.557 µM | 0.737 µM | 2.25 µM | 0.337 µM | 2.3 µM
12 | COc1ccc(-c2cnc(-c3ccc(F)cc3)[nH]2)cc1 | 1.82 µM | 5.57 µM | 18.1 µM | > 89.4 µM | 5.9 µM | 18.5 µM | – | 13.1 µM | 1.95 µM | 6.93 µM | 24 µM | > 77.7 µM | 10.5 µM | 49.6 µM | 1.64 µM | 3.65 µM | 18.8 µM | 45 µM | 8.39 µM | 36.4 µM
